This assay concerns virus-infected cells, CPE inhibition, dose response. Nature of the assay: PubChem AID 806. Conditions: for EC90: measured here: EC90 CPE inhibition; for CC50: measured here: cytotoxicity, cell viability IC50.

Structures are written as SMILES. Calls of active or inactive are those of the source. How the calls were made is not given here.

Broadly, the EC50 is the concentration that produces a half-maximal response. As a reminder, the EC90 is the point of the concentration-response curve where the effect stands at 90%. By CC50 is commonly meant the concentration that lowers cell viability or growth by half. The low end stands for harm at low concentration, the high end for better tolerance by the cells. Turning to `O=C(NCc1ccco1)C1CCCCN1S(=O)(=O)c1ccc(F)cc1` (stereo not given), the EC50 is > 60 µM (inactive), the EC90 was more than 60 µM and the 50% cytotoxic concentration (CC50) is more than 60 µM.

With `Cc1cccc(NC(=O)c2cc3ccccc3o2)c1`, the EC50 is > 60 µM (inactive), the 90% effect concentration (EC90) was more than 60 µM and the CC50 was more than 60 µM.

Regarding `O=C(CSc1nnc2sc3ccccc3n12)N1CCN(c2ccccc2)CC1`, the EC90 was more than 60 µM and the CC50 is more than 60 µM.

Consider `CC(C)(C)OC(=O)NCCc1nnc(SCc2c(Cl)cccc2Cl)o1`, for which the EC50 was > 60 µM (inactive), the concentration for an effect of 90% (EC90) was more than 60 µM and the half-maximal cytotoxic concentration (CC50) is more than 60 µM.

`COc1cccc(CNC(=O)CCS(=O)(=O)c2cccc3nsnc23)c1`: the EC50 is > 60 µM (inactive), the EC90 is more than 60 µM and the CC50 was more than 60 µM.

`CC(=O)c1cccc(NC(=O)CCS(=O)(=O)c2cccc3nsnc23)c1`: the EC50 was > 60 µM (inactive), the EC90 was more than 60 µM and the CC50 was more than 60 µM.

As for `CCSc1nnc(-c2ccc(OC)cc2)o1`, the EC50 was > 60 µM (inactive), the EC90 is more than 60 µM and the cytotoxic concentration (CC50) was more than 60 µM.

Regarding `O=C(c1cc(-c2ccc(Cl)cc2)n(-c2cc(Cl)ccc2Cl)n1)N1CCOCC1`, the EC50 is > 60 µM (inactive), the EC90 is more than 60 µM and the CC50 was more than 60 µM.

Turning to `COC(=O)CSc1nnc(-c2ccncc2)o1`, the EC50 was > 60 µM (inactive), the EC90 is more than 60 µM and the CC50 is more than 60 µM.

Consider `O=C1NCCCc2c1oc1cc(Br)c(O)c(Br)c21`, for which the EC50 is > 60 µM (inactive), the EC90 was more than 60 µM and the CC50 is more than 60 µM.

On to `CC(c1ccco1)N(C(=O)COc1ccc(Cl)cc1Cl)c1ccccn1` (stereo not given), for which the EC50 was > 60 µM (inactive), the concentration for an effect of 90% (EC90) is more than 60 µM and the CC50 was more than 60 µM.

For `C#CCSc1nnc(-c2ccc(OC)cc2)o1`, the EC50 is > 60 µM (inactive), the concentration for an effect of 90% (EC90) is more than 60 µM and the half-maximal cytotoxic concentration (CC50) was more than 60 µM.

As to `Cn1nc(C(=O)Nc2c(-c3ccccc3)nc3sccn23)c2ccccc2c1=O`, the EC50 is > 60 µM (inactive), the concentration for an effect of 90% (EC90) is more than 60 µM and the half-maximal cytotoxic concentration (CC50) was more than 60 µM.

As for `O=C1CC(C(=O)Nc2cccc3ccccc23)C2(CCCC2)O1` (stereo not given), the EC50 was > 60 µM (inactive), the 90% effect concentration (EC90) is more than 60 µM and the CC50 was more than 60 µM.

For the compound `Cc1ccc2c(C)c(C(=O)Nc3cccnc3)oc2c1`, the EC50 was > 60 µM (inactive), the EC90 was more than 60 µM and the CC50 was more than 60 µM.

Regarding `Cc1ccc(OCC(=O)Nc2ccc(-c3nnc(-c4ccco4)o3)cc2)cc1`, the EC50 is > 60 µM (inactive), the concentration for an effect of 90% (EC90) was more than 60 µM and the CC50 was more than 60 µM.

Regarding `COc1ccc(-c2nnc3ccc(SCC(=O)NCc4ccco4)nn23)cc1OC`, the EC50 is > 60 µM (inactive), the EC90 was more than 60 µM and the CC50 is more than 60 µM.

In the case of `CC(C)CCNC(=O)C1CCCCN1S(=O)(=O)c1ccc(F)cc1` (stereo not given), the EC50 is > 60 µM (inactive), the EC90 was more than 60 µM and the CC50 was more than 60 µM.

With `COc1ccc(Nc2ncnc3c2cnn3-c2ccccc2)cc1OC`, the EC50 was > 60 µM (inactive), the EC90 was more than 60 µM and the CC50 is more than 60 µM.

Consider `O=C(CSc1ccc2nnc(-c3ccccn3)n2n1)NCc1ccco1`, for which the EC50 was > 60 µM (inactive), the EC90 is more than 60 µM and the CC50 was more than 60 µM.

For the compound `COc1ccc(OC)c(-n2c(SC)nnc2-c2c[nH]c3ccccc23)c1`, the EC50 was > 60 µM (inactive), the EC90 is more than 60 µM and the CC50 was more than 60 µM.

Take `COCCNC(=O)C(c1ccccc1C)N(CCOC)C(=O)Cn1nnc2ccccc21` (stereo not given): the EC50 was > 60 µM (inactive), the EC90 was more than 60 µM and the CC50 was more than 60 µM.

Turning to `Cc1ccc(C)c(Cc2c(C)nc3c(C(=O)N4CCOCC4)cnn3c2C)c1`, the EC50 is > 60 µM (inactive), the EC90 is more than 60 µM and the CC50 is more than 60 µM.

On to `O=C1c2ccccc2-c2onc3ccc(Oc4ccccc4)c1c23`, for which the EC50 is > 60 µM (inactive), the EC90 was more than 60 µM and the CC50 came to 17.7 µM.

Consider `Cc1cc(NC(=O)c2noc3c2CCc2ccccc2-3)no1`, for which the EC50 was > 60 µM (inactive), the EC90 is more than 60 µM and the CC50 is more than 60 µM.

Turning to `COc1ccc(-n2ncc3c(Nc4cccc(C)c4)ncnc32)cc1`, the EC50 is > 60 µM (inactive), the EC90 is more than 60 µM and the CC50 was more than 60 µM.

On to `CC(C)(C)OC(=O)N[C@@H](Cc1ccccc1)c1nnc(SCC(=O)O)o1`, for which the EC50 is > 60 µM (inactive), the EC90 is more than 60 µM and the CC50 is more than 60 µM.

With `O=C1CC(C(=O)Nc2ccc(Br)cc2)C2(CCCC2)O1` (stereo not given), the EC50 was > 60 µM (inactive), the EC90 is more than 60 µM and the CC50 was more than 60 µM.

For the compound `COc1ccccc1Cn1c(=O)c2ccccc2n2c(SCc3csc(C)n3)nnc12`, the EC50 is > 60 µM (inactive), the EC90 is more than 60 µM and the CC50 was more than 60 µM.

For the compound `COc1cc(OC)c(C2=NOC(C(=O)Nc3cc(C)nn3-c3ccccc3)C2)cc1Cl` (stereo not given), the EC50 is > 60 µM (inactive), the EC90 is more than 60 µM and the CC50 is more than 60 µM.

Consider `Cc1c(NC(=O)CSc2nnc3sc4ccccc4n23)c(=O)n(-c2ccccc2)n1C`, for which the EC50 is > 60 µM (inactive), the EC90 is more than 60 µM and the CC50 is more than 60 µM.

In the case of `CCOC(=O)c1cccc(NC(=O)CCS(=O)(=O)c2cccc3nsnc23)c1`, the EC50 is > 60 µM (inactive), the EC90 was more than 60 µM and the CC50 was more than 60 µM.

As to `O=C1/C(=C\c2ccco2)SC(=S)N1Cc1ccccc1`, the EC50 was > 60 µM (inactive), the EC90 was more than 60 µM and the CC50 amounted to 6.46 µM.

As for `CC1CCCN(c2ccc(C(=O)NCc3cccs3)cn2)C1` (stereo not given), the EC50 is > 60 µM (inactive), the EC90 was more than 60 µM and the CC50 is more than 60 µM.

As to `O=C(c1cccs1)N1CCn2c1nc1ccccc12`, the EC50 is > 60 µM (inactive), the EC90 is more than 60 µM and the CC50 is more than 60 µM.

`Cc1noc(C)c1CSc1nc2sc(C)c(C)c2c(=O)n1C1CCCC1`: the EC50 is > 60 µM (inactive), the EC90 is more than 60 µM and the CC50 turned out to be 10 µM.

For the compound `CCC(C)(C)NC(=O)C(c1cccnc1)N(CCOC)C(=O)Cn1nnc2ccccc21` (stereo not given), the EC50 is > 60 µM (inactive), the EC90 is more than 60 µM and the CC50 is more than 60 µM.

On to `COc1ccccc1NC(=O)c1oc2ccc(C)cc2c1C`, for which the EC50 was > 60 µM (inactive), the EC90 is more than 60 µM and the cytotoxic concentration (CC50) is more than 60 µM.

As for `COCCCNC(=O)C1CCCCN1S(=O)(=O)c1ccc(F)cc1` (stereo not given), the EC50 was > 60 µM (inactive), the EC90 was more than 60 µM and the 50% cytotoxic concentration (CC50) was more than 60 µM.

For the compound `Cc1c(C(=O)Nc2ccccn2)oc2ccccc12`, the EC50 was > 60 µM (inactive), the EC90 was more than 60 µM and the 50% cytotoxic concentration (CC50) is more than 60 µM.

`CCOc1ccc(Nc2ncnc3c2cnn3-c2ccccc2)cc1`: the EC50 is > 60 µM (inactive), the EC90 was more than 60 µM and the CC50 was more than 60 µM.

Turning to `O=C(COc1ccccc1)Nc1ccc(-c2nnc(-c3ccco3)o2)cc1`, the EC50 is 52 µM (inactive), the EC90 is more than 60 µM and the CC50 was more than 60 µM.

Turning to `Cc1nn2c(C(F)(F)F)cc(-c3ccc(Cl)cc3)nc2c1C(=O)N1CCOCC1`, the EC50 is > 60 µM (inactive), the EC90 was more than 60 µM and the CC50 is more than 60 µM.

As for `CCCCN(C(=O)Cn1nnc2ccccc21)C(C(=O)NCCOC)c1ccccc1` (stereo not given), the EC50 is > 60 µM (inactive), the EC90 was more than 60 µM and the CC50 was more than 60 µM.

For `Cc1nc2ccc(NC(=O)C3CCN(S(=O)(=O)c4cccs4)CC3)cc2s1`, the EC50 was > 60 µM (inactive), the EC90 is more than 60 µM and the cytotoxic concentration (CC50) is more than 60 µM.

For the compound `COc1ccc(C)cc1NC(=O)C1CC(=O)OC12CCCCC2` (stereo not given), the EC50 is > 60 µM (inactive), the EC90 was more than 60 µM and the CC50 is more than 60 µM.

Turning to `NC(=O)c1c(NC(=O)CSc2nnc(Cc3ccccc3)n2Cc2ccco2)sc2c1CCC2`, the EC50 was > 60 µM (inactive), the EC90 is more than 60 µM and the CC50 is more than 60 µM.

As for `COc1ccc(C(=O)C(CN2CCOCC2)c2ccccc2)cc1F` (stereo not given), the EC50 is > 60 µM (inactive), the EC90 is more than 60 µM and the CC50 is more than 60 µM.

With `CC1(C)Cc2c(c(N3CCOCC3)nc3sc4c(=O)[nH]cnc4c23)CS1`, the EC50 was > 60 µM (inactive), the EC90 is more than 60 µM and the CC50 is more than 60 µM.

As for `CCOc1ccc(NC(=O)CCS(=O)(=O)c2cccc3nsnc23)cc1`, the EC50 was > 60 µM (inactive), the EC90 is more than 60 µM and the CC50 was more than 60 µM.

For the compound `O=C(NC1CCS(=O)(=O)C1)C1CCCCN1S(=O)(=O)c1ccc(Cl)cc1` (stereo not given), the EC50 was > 60 µM (inactive), the concentration for an effect of 90% (EC90) is more than 60 µM and the CC50 was more than 60 µM.

Regarding `O=C(c1cc(-c2ccc(Cl)cc2)n(-c2ccc(Cl)cc2)n1)N1CCOCC1`, the EC50 is > 60 µM (inactive), the EC90 is more than 60 µM and the CC50 worked out at 4.34 µM.

As for `CCc1c(C)nc2[nH]nc(-c3ccccc3)n2c1=O`, the EC50 was > 60 µM (inactive), the EC90 was more than 60 µM and the CC50 was more than 60 µM.

Turning to `O=C(CSc1nnc2sc3ccccc3n12)NCc1ccco1`, the EC90 was more than 60 µM and the CC50 was more than 60 µM.

The values are drawn from PubChem BioAssay AID806 (SRMLSC, 2007).
